Experimental data: PMC8421423, “Cellular model system to dissect the isoform-selectivity of Akt inhibitors” (Nature Communications, 2021)
Several values for one entry are separate records, joined by “and”; a condition that tells them apart may be missing. Equal entries are not always repeated. Where two headings read alike, the source gives them in different places.

How the values were obtained:
[1] = target: Akt3 (Homo sapiens, UniProt Q9Y243); assay: STK HTRF KinEASE activity-based assay (IC50)
[2] = tested on: Ba/F3^myr-Akt2 cells; assay: CellTiter-Glo cell viability assay
Procedure: (§1) On day 0, cells were plated into white 384-well cell culture plates (Greiner Bio-One) using a Multidrop reagent dispenser (Thermo Fisher Scientific) at cell numbers that ensure linear and optimal luminescent signal intensity (Ba/F3myr-Akt1: 600 cells/well, Ba/F3myr-Akt2: 800 cells/well, Ba/F3myr-Akt3: 800 cells/well). […] Cell viability was analyzed on day 4 using the CellTiter-Glo Assay (Promega) as per the manufacturer’s instructions. […] All experimental points were measured in duplicates for each plate and were replicated in at least three plates.

[3] = tested on: Ba/F3^myr-Akt1 cells; assay: CellTiter-Glo cell viability assay; conditions: for Log ratio EC50 [Akt] / EC50 [Akt], Akt1 / Akt2: cell viability assay Ba/F3 myr-Akt cells, log units
Procedure: as §1

[4] = target: Akt1 (Homo sapiens, UniProt P31749); assay: STK HTRF KinEASE activity-based assay (IC50); conditions: for Log ratio IC50 [Akt] / IC50 [Akt], Akt1 / Akt2: biochemical activity based assay, log units
Procedure: (§2) The biochemical half maximal inhibitory concentrations (IC50) were determined with the STK HTRF KinEASE assay (Cisbio) according to the manufactor’s instructions. Briefly: 5 µL Kinase solution and 2.5 µL inhibitor solution (8% DMSO in HTRF buffer) were incubated for 1 h before the reaction was started by addition of 2.5 µL starting solution containing ATP and substrate peptide. […] After reaction completion (Akt1: 60 min, Akt2: 20 min, Akt3: 15 min), 10 µL of stop solution were added. […] The quotient of both intensities were recorded at eight different inhibitor concentrations and data fit to a Hill 4-parameter equation with Quattro software suite (Quattro Research GmbH, Martinsried, Germany). Each reaction was performed in duplicates and at least three independent determinations of each IC50 were made.

[5] = tested on: Ba/F3^myr-Akt3 cells; assay: CellTiter-Glo cell viability assay; conditions: for Log ratio EC50 [Akt] / EC50 [Akt], Akt3 / Akt2: cell viability assay Ba/F3 myr-Akt cells, log units
[6] = target: Akt2 (Homo sapiens, UniProt P31751); assay: STK HTRF KinEASE activity-based assay (IC50)
Procedure: as §2

[7] = tested on: parental Ba/F3 cells; assay: CellTiter-Glo cell viability assay; format: cell-based, murine
[8] = HTRF IC50 Akt3, Mean, mean of replicates
[9] = HTRF IC50 Akt3, individual determinations, single replicates
[10] = IC50 Akt3, HTRF, ATP at KM, 1 h preincubation
[11] = Mus musculus, read-out: CTG BaF3myr-Akt2, Mean, mean of replicates
[12] = read-out: CTG BaF3myr-Akt2, individual determinations, single replicates
[13] = Mus musculus, read-out: CTG BaF3myr-Akt1, Mean, mean of replicates
[14] = Mus musculus, read-out: CTG BaF3myr-Akt1, individual determinations, single replicates
[15] = read-out: CTG BaF3myr-Akt1, individual determinations, single replicates
[16] = HTRF IC50 Akt1, Mean, mean of replicates
[17] = HTRF IC50 Akt1, individual determinations, single replicates
[18] = IC50 Akt1, HTRF, ATP at KM, 1 h preincubation
[19] = Mus musculus, read-out: CTG BaF3myr-Akt3, Mean, mean of replicates
[20] = Mus musculus, read-out: CTG BaF3myr-Akt3, individual determinations, single replicates
[21] = read-out: CTG BaF3myr-Akt3, individual determinations, single replicates
[22] = HTRF IC50 Akt2, Mean, mean of replicates
[23] = HTRF IC50 Akt2, individual determinations, single replicates
[24] = IC50 Akt2, HTRF, ATP at KM, 1 h preincubation
[25] = Mus musculus, BaF3, parental cells, mean of replicates, read-out: CTG BaF3, Mean
[26] = Mus musculus, BaF3, parental cells, single replicates, read-out: CTG BaF3, individual determinations
[27] = parental cells, single replicates, read-out: CTG BaF3, individual determinations
[28] = Mus musculus, read-out: CTG BaF3myr-Akt2, individual determinations, single replicates
[29] = Mus musculus, read-out: EC50 BaF3myr-Akt1, CTG
[30] = Mus musculus, BaF3, CTG, parental BaF3 cell line, read-out: EC50 BaF3

Akt2, sequence (P31751 whole entry): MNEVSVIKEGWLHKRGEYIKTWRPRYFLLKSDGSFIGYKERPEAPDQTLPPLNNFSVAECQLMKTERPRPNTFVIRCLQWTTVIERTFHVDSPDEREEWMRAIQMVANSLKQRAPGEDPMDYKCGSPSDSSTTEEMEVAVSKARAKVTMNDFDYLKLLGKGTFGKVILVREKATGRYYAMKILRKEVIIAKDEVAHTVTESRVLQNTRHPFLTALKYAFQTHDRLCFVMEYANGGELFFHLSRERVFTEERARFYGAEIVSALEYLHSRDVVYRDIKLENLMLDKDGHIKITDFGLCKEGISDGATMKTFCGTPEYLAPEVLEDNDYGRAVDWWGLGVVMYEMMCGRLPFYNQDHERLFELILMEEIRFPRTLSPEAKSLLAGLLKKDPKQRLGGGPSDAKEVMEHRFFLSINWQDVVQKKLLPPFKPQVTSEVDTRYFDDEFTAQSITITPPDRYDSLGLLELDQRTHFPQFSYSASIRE
Akt1, sequence (P31749 whole entry): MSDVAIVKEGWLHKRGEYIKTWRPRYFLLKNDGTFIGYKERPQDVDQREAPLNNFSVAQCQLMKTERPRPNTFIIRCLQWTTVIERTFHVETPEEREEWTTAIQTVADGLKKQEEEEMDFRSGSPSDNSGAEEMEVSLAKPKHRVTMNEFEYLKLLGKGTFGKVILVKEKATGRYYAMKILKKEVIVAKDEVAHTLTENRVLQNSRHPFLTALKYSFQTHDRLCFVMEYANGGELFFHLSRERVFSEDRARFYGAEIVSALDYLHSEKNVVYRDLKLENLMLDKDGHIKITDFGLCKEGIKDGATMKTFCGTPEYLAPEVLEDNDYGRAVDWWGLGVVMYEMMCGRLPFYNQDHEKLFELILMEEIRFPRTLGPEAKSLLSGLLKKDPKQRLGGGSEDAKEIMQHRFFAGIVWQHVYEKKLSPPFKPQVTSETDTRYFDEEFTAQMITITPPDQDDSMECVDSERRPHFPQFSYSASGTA
Akt3, sequence (Q9Y243 whole entry): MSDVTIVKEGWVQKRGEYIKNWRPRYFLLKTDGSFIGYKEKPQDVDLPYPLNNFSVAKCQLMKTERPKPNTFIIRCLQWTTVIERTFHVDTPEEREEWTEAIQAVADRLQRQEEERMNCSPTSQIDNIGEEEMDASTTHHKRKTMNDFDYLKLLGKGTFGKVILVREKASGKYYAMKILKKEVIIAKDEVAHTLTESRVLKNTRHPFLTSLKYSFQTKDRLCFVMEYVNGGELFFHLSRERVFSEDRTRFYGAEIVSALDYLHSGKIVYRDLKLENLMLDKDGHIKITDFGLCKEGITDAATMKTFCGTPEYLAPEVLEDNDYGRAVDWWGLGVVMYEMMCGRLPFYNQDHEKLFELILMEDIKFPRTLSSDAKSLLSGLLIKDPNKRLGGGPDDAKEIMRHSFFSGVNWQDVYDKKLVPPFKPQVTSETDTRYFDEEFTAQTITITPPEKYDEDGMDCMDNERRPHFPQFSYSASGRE

IC50 [1, 8] [µM]	IC50 [1, 9]	IC50 [1, 10] [µM]	EC50 [2, 12]	EC50 [3, 13] [µM]	EC50 [3, 14] [µM]	EC50 [3, 15]	IC50 [4, 16] [µM]	IC50 [4, 17]	IC50 [4, 18] [µM]	Log ratio IC50 [Akt] / IC50 [Akt], Akt1 / Akt2 [4]	EC50 [5, 19] [µM]	EC50 [5, 20] [µM]	EC50 [5, 21]	IC50 [6, 23]	IC50 [6, 24] [nM]	Compound	Log ratio EC50 [Akt] / EC50 [Akt], Akt1 / Akt2 [3]	Log ratio EC50 [Akt] / EC50 [Akt], Akt3 / Akt2 [5]	EC50 [7, 26] [µM]	EC50 [7, 27]	also measured
2.11	1.48 µM and 2.41 µM and 2.43 µM	2.11 ± 0.441	4.24 µM and 2.81 µM	> 30	> 30	> 30 µM	2.85	2.55 µM and 3.9 µM and 2.12 µM	2.85 ± 0.758	1.33	22	21.7	17.8 µM and 24.3 µM	136 nM and 142 nM and 121 nM	133 ± 9	C=CC(=O)Nc1ccc2[nH]c(=O)n(C3CCN(Cc4ccc(-c5ncc(Cc6cccc(N)c6)cc5-c5ccccc5)cc4)CC3)c2c1 [compound 17]	0.90	-0.77	> 30	> 30 µM	EC50 [2, 11]: 3.75 µM; EC50 [2, 28]: 3.2 µM; EC50 [3, 29]: > 30 µM; IC50 [6, 22]: 133 nM; EC50 [7, 30]: > 30 µM; EC50 [7, 25]: > 30 µM
	4.83 µM and 5.38 µM and 2.87 µM	4.36 ± 1.08	11.5 µM and 13.9 µM and 23.9 µM and 7.94 µM	26.7	28	22.1 µM	0.604	0.57 µM and 0.597 µM and 0.645 µM	0.604 ± 0.031	-0.37	17.2	15.7	18.6 µM and 17.2 µM	1300 nM and 1340 nM and 1560 nM	1400 ± 112	C=CC(=O)Nc1ccc2[nH]c(=O)n(C3CCN(Cc4ccc(-c5ncc(Cc6ccc(C)o6)cc5-c5ccccc5)cc4)CC3)c2c1 [compound 15]	0.27	-0.08	> 30	> 30 µM and 25.7 µM	EC50 [2, 11]: 14.3 µM
5.34	4.32 µM and 3.56 µM and 8.14 µM	5.34 ± 2.01	16.5 µM and > 30 µM	> 30	> 30	> 30 µM	9.48	10.2 µM and 9 µM and 9.2 µM	9.48 ± 0.665	1.14	> 30	> 30	> 30 µM	766 nM and 1080 nM and 599 nM	682 ± 83	C=CC(=O)Nc1ccc2[nH]c(=O)n(C3CCN(Cc4ccc(-c5ncc(Cc6cccc(O)c6)cc5-c5ccccc5)cc4)CC3)c2c1 [compound 16]	0.07	-0.07	> 30	> 30 µM	EC50 [2, 28]: > 30 µM; EC50 BaF3myr-Akt1 ([3]; CTG): generally inactive; EC50 [3, 29]: > 30 µM; EC50 BaF3myr-Akt3 ([5]; CTG): generally inactive; EC50 ([5]; Mus musculus, read-out: EC50 BaF3myr-Akt3, CTG): > 30 µM; IC50 [6, 22]: 682 nM; EC50 [7, 30]: > 30 µM; EC50 [7, 25]: > 30 µM

Compound	IC50 [1, 8] [µM]	IC50 [1, 9]	IC50 [1, 10] [µM]	EC50 [2, 12]	EC50 [3, 13] [µM]	EC50 [3, 14] [µM]	EC50 [3, 15]	IC50 [4, 16] [µM]	IC50 [4, 17]	IC50 [4, 18] [µM]	Log ratio IC50 [Akt] / IC50 [Akt], Akt1 / Akt2 [4]	EC50 [5, 19] [µM]	EC50 [5, 20] [µM]	EC50 [5, 21]	IC50 [6, 23]	IC50 [6, 24] [nM]	Log ratio EC50 [Akt] / EC50 [Akt], Akt1 / Akt2 [3]	Log ratio EC50 [Akt] / EC50 [Akt], Akt3 / Akt2 [5]	EC50 [7, 26] [µM]	EC50 [7, 27]	also measured
C=CC(=O)Nc1ccc2[nH]c(=O)n(C3CCN(Cc4ccc(-c5ncc(CN6CCCC6)cc5-c5ccccc5)cc4)CC3)c2c1 [compound 7]	> 20	> 20 µM	> 20	1.58 µM and 3 µM and 1.35 µM and 1.19 µM	4.71	4.23	4.27 µM and 4.14 µM and 6.2 µM	7.09	10 µM and 10.5 µM and 4.2 µM and 7.74 µM and 8.28 µM and 1.75 µM	7.09 ± 3.44	1.17	2.51	2.06	1.92 µM and 3.02 µM and 3.04 µM	535 nM and 351 nM and 552 nM	479 ± 91	0.42	-0.15	6.97	8.01 µM and 10.4 µM	IC50 ([1]; read-out: HTRF IC50 Akt3, individual determinations, single replicates): > 20 µM; EC50 [2, 11]: 1.78 µM; IC50 [6, 22]: 479 nM; EC50 [7, 25]: 8.46 µM
